Measured values as given in patent US20260250257A1, “ANTIBACTERIAL AND SYNERGISTIC ACTIVE COMPOUND AND USE THEREOF” (EAST CHINA UNIVERSITY OF SCIENCE AND TECHNOLOGY, priority 2023, published 2026).
≈ marks a conversion by molar mass, not a printed value.

Key:
Type in all cases: cell-based
[1] = tested on: ATCC13883 strain (Klebsiella pneumoniae); test: Broth microdilution, antibacterial activity of the compound used alone; conditions: for MIC: read-out: Antibacterial activity of the compound of Formula I, ATCC13883
Source text: (§1) The broth microdilution method was used to test the antibacterial effects of the compounds of the present invention against various Gram-negative bacterial strains when used alone.

[2] = tested on: ATCC25922 strain (Escherichia coli); test: as above; conditions: for MIC: read-out: Antibacterial activity of the compound of Formula I, ATCC25922
Source text: as §1

[3] = tested on: ATCC9027 strain (Pseudomonas aeruginosa); test: as above; conditions: for MIC: read-out: Antibacterial activity of the compound of Formula I, ATCC9027
Source text: as §1

[4] = tested on: ATCC19606 strain (Acinetobacter baumannii); test: as above; conditions: for MIC: read-out: Antibacterial activity of the compound of Formula I, ATCC19606
Source text: as §1

[5] = tested on: ATCC13883 strain (Klebsiella pneumoniae); test: Checkerboard antibacterial synergistic activity test with polymyxin E (FIC); set-up: key: FIC≤0.5 synergy; 0.5–1 additive; 1–2 indifferent; ≥2 antagonism; conditions: combined with polymyxin E
Summary of the method: (§2)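 Polymyxin E was diluted in MH broth to 16–0.015 μg/ml and the test compound to 256–4 μg/ml (two-fold series, pre-mixing concentrations), combined checkerboard-style in 96-well plates with bacterial suspension and blank controls, and incubated at 37° C. for 16 h. FIC ≤0.5 was scored synergistic, >0.5 to <1 additive, 1–2 indifferent, ≥2 antagonistic.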

[6] = tested on: ATCC25922 strain (Escherichia coli); test: as above; set-up: key: FIC≤0.5 synergy; 0.5–1 additive; 1–2 indifferent; ≥2 antagonism; conditions: combined with polymyxin E
Summary of the method: as §2

[7] = tested on: ATCC9027 strain (Pseudomonas aeruginosa); test: as above; set-up: key: FIC≤0.5 synergy; 0.5–1 additive; 1–2 indifferent; ≥2 antagonism; conditions: combined with polymyxin E
Summary of the method: as §2

[8] = tested on: ATCC19606 strain (Acinetobacter baumannii); test: as above; set-up: key: FIC≤0.5 synergy; 0.5–1 additive; 1–2 indifferent; ≥2 antagonism; conditions: combined with polymyxin E
Summary of the method: as §2

| SMILES | Antibacterial activity of the compound of Formula I, ATCC13883 [1] [µg/mL] | Antibacterial activity of the compound of Formula I, ATCC25922 [2] [µg/mL] | Antibacterial activity of the compound of Formula I, ATCC9027 [3] [µg/mL] | Antibacterial activity of the compound of Formula I, ATCC19606 [4] [µg/mL] | Synergistic activity (FIC value) ATCC13883 [5] | Synergistic activity (FIC value) ATCC25922 [6] | Synergistic activity (FIC value) ATCC9027 [7] | Synergistic activity (FIC value) ATCC19606 [8] | MIC [1] [µg/mL] | MIC [2] [µg/mL] | MIC [3] [µg/mL] | MIC [4] [µg/mL] |
| --- | --- | --- | --- | --- | --- | --- | --- | --- | --- | --- | --- | --- |
| NC(N)=Nc1nc(-c2cccc(Cl)c2)cs1 [Compound I-37] | 256 | 256 | 256 | 256 | 1.25 | 1.25 | 0.52 | 0.25 |  |  |  |  |
| NC(N)=Nc1nc(-c2ccc(Cl)cc2)cs1 [Compound I-38] | 256 | 256 | 256 | 256 | 0.25 | 0.5 | 0.63 | 0.28 |  |  |  |  |
| NC(N)=Nc1nc(-c2cc(Cl)cc(Cl)c2)cs1 [Compound I-39] | 128 | 128 | 64 | 256 | 1.25 | 1.25 | 1.25 | 0.75 |  |  |  |  |
| NC(N)=Nc1nc(-c2cc(Cl)c(O)c(Cl)c2)co1 [Compound I-40] | 256 | 256 | 256 | 256 | 0.19 | 0.52 | 0.51 | 0.13 |  |  |  |  |
| NC(N)=Nc1nc(-c2ccccc2C(F)(F)F)c[se]1 [Compound I-41] | 256 | 256 | 256 | 256 | 0.38 | 0.38 | 0.63 | 0.5 |  |  |  |  |
| NC(N)=Nc1nc(-c2cccc(C(F)(F)F)c2)c[nH]1 [Compound I-42] | 256 | 256 | 256 | 256 | 1.25 | 0.53 | 1.25 | 1.25 |  |  |  |  |
| NC(N)=Nc1nc(-c2ccc(C(F)(F)F)cc2)cs1 [Compound I-43] | 256 | 256 | 256 | 256 | 1.25 | 0.5 | 0.63 | 1.25 |  |  |  |  |
| NC(N)=Nc1nc(-c2cc(C(F)(F)F)cc(C(F)(F)F)c2)cs1 [Compound I-44] |  |  |  |  | 0.25 | 0.31 | 0.52 | 0.14 | 256 (≈ 723 µM) | 256 (≈ 723 µM) | 256 (≈ 723 µM) | 256 (≈ 723 µM) |
| NC(N)=Nc1nc(-c2cc(C(F)(F)F)c(O)c(C(F)(F)F)c2)co1 [Compound I-45] | 256 | 256 | 256 | 256 | 0.19 | 0.52 | 1.25 | 0.13 |  |  |  |  |
| CC(C)=CCOc1ccccc1-c1csc(N=C(N)N)n1 [Compound I-46] | 256 | 256 | 256 | 256 | 0.25 | 0.27 | 0.52 | 0.31 |  |  |  |  |
| CC(C)=CCOc1cccc(-c2csc(N=C(N)N)n2)c1 [Compound I-47] |  |  |  |  | 1.25 | 0.5 | 1.25 | 0.75 | 256 (≈ 847 µM) | 256 (≈ 847 µM) | 256 (≈ 847 µM) | 256 (≈ 847 µM) |
| CC(C)=CCOc1ccc(-c2csc(N=C(N)N)n2)cc1 [Compound I-48] | 256 | 256 | 256 | 256 | 0.51 | 0.51 | 0.75 | 0.16 |  |  |  |  |
| CC(C)=CCOc1cc(OCC=C(C)C)cc(-c2nc(N=C(N)N)[nH]c2C)c1 [Compound I-49] | 256 | 256 | 256 | 256 | 0.53 | 1.25 | 0.53 | 0.25 |  |  |  |  |
| CC(C)=CCOc1cc(-c2nc(N=C(N)N)oc2Cl)cc(OCC=C(C)C)c1O [Compound I-50] | 256 | 256 | 256 | 256 | 0.16 | 0.26 | 0.31 | 0.13 |  |  |  |  |
| Cc1cc(C)c(-c2csc(N=C(N)N)n2)c(C)c1 [Compound I-51] |  |  |  |  | 1.25 | 0.5 | 1.25 | 1.25 | 256 (≈ 983 µM) | 256 (≈ 983 µM) | 256 (≈ 983 µM) | 256 (≈ 983 µM) |
| NC(N)=Nc1nc(-c2c(Cl)cc(Cl)cc2Cl)c[nH]1 [Compound I-52] | 256 | 256 | 256 | 256 | 0.25 | 0.5 | 0.63 | 0.3 |  |  |  |  |
